Source: patent publication US12208227B2, “Precision bio-chemotronic system” (THE REGENTS OF THE UNIVERSITY OF MICHIGAN, priority 2017, dated 2025)
In brackets after ≈: the same amount, converted by molar mass. One block for each molecule: values may come before it.

Columns and labels:
[1] = Dissolution of printed films versus original loose powders; format: physicochemical
Description: (§2) Drug dissolution was monitored by in-situ UV-VIS Ocean Optics USB+2000 spectrometer with T300-UV-VIS transmission dip probe, with a 10 mm optical path.
(§3) For dissolution from film, the glass substrate with printed film was attached to rotating rod with substrate holder. In case of compressed powder pellet, 1.57 mm diameter pellet was compressed at 50±2 psi for approximately 10 seconds into a holder having same size as disk substrate holder. […] In all cases the same vessel and solution volume of 10 ml was used. Testing temperature was room temperature−20±1° C. Sink conditions were defined as C<5Cs.
As-received API powders having the same weight as the films were introduced into 10 ml solutions without any prior treatment, and stirred using a rotation rod with the same shape and diameter as the one used for film dissolution.

[2] = physchem; conditions: 20 °C, pH 1.2, simulated gastric fluid, thermodynamic from solid
Description: Solubility tests were performed at ambient temperature (20±1° C.). Solutions with excess concentration (at least 100 μg/ml of solid) were shaken at approximately 1,000 rpm for 48 hours, followed by solution filtration with 0.4 μm filter after 24 hrs. Filtered solutions concentrations were then measured using UV-VIS spectrometry, calibrated with known solutions concentrations. Five different concentrations for calibration were used in each test.
Solution volume remained constant in all experiments, 10 ml, and temperature was 20±1° C.

[3] = Intrinsic dissolution rate, rotating disk dissolution apparatus; format: physicochemical; conditions: films comparable to compressed pellets, 100 rpm, 10 ml, 20±1° C.
Description: as §2
Dissolution Rate Measurement
as §3
To measure dissolution kinetics, a rotating disk dissolution apparatus (see FIG. 30 for details) was used with rotational speed of 100 rpm. Concentration was monitored using a UV-VIS spectrometer equipped with a dip probe. The compounds were tested both in powder form (compressed into pellets for rotating disk dissolution) and in film form. […]
[formula] where m is the dissolved solute mass, and (dm/dt)max is the maximum slope in the dissolution curve that plots the amount of dissolved material versus time, typically evaluated at the start of dissolution process, where the concentration driving force is highest. […]

[4] = tested on: OVCAR3 cells (ovarian carcinoma); assay: Cancer cell growth/viability, live cell counts by trypan blue exclusion; format: cell-based
Description: (§1) The cells were plated onto 12-well tissue culture dishes, and allowed to adhere and grow for 24 hours in 2.5 ml of 10% fetal bovine serum-supplemented growth medium. […] Slides were removed following this initial period, and live cell counts were determined using trypan blue exclusion using a hemocytometer at 1, 4, 8, 12, 24 and 48 hours following film treatment. At least 3 samples were tested at each time point.

[5] = tested on: MCF7 cells (breast carcinoma); assay: as above; format: cell-based
Description: as §1

[6] = film form, nominal 5 μM (4.5 μg per film)
[7] = powder form in growth medium, nominal 5 μM

SMILES: Cn1c(=O)c2c(ncn2C)n(C)c1=O [Caffeine]
dissolution in the film form (qualitative) ([1]; film form): instantaneous dissolution

enhancement of initial dissolution rate, film-form versus loose powder ([1]; aqueous HCl buffer pH 1.2, 70 μg weight, 10 ml): thirty-fold
solubility at 48 h [2]: 22.5 ± 0.5 µg/mL (≈ 109 µM)
intrinsic dissolution rate (IDR) ([3]; aqueous HCl buffer pH 1.2): 1·10^−3±3·10^−4 μg sec^−1 mm^−2
SMILES: CC(C)Cc1ccc(C(C)C(=O)O)cc1 (stereo not drawn) [ibuprofen]

intrinsic dissolution rate (IDR) ([3]; aqueous acetate buffer pH 4.9): 6.10^−4±1·10^−4 μg sec^−1 mm^−2
SMILES: CC/C(=C(\c1ccccc1)c1ccc(OCCN(C)C)cc1)c1ccccc1 [tamoxifen]
cancer cells' viability after 48 hours [4, 6]: 44%
cancer cells' viability after 48 hours [4, 7]: 68%
cancer cells' viability after 48 hours [5, 6]: 58%
cancer cells' viability after 48 hours [5, 7]: 79%
